From patent US20120041068A1, “Extended Release Pharmaceutical Preparations for Active Pharmaceutical Ingredients with pH Dependent Solubility” (Aptapharma, Inc., priority 2010, published 2012)
Counter-ions that a name gives are not always drawn.

Assay: Effect of crystallization inhibitor on guanfacine HCl solubility (clear vs precipitate on storage)
Format: physicochemical
Details: in the presence of polyvinyl pyrrolidone vs comparison formulation without polyvinyl pyrrolidone
Description: As crystallization inhibitors, highly dispersed silicon dioxide or macromolecular substances are suitable.

N=C(N)NC(=O)Cc1c(Cl)cccc1Cl [guanfacine, guanfacine hydrochloride]
tendency toward crystal formation: less tendency toward crystal formation
